# Source: article PMC8302244 (CPT: Pharmacometrics & Systems Pharmacology, 2021)
# What was measured:
# [1] = system: CYP3A4 mRNA; details: primary human hepatocytes, up to 300 μM; ref unpublished data on file; cited from earlier work
# [2] = Predicted individual exposure metrics
# [3] = cited from earlier work
# [4] = Semimechanistic population PK model
# [5] = system: human cell lines derived from NC, SCLC, CRPC, TNBC, ER+BC and GIST; details: cited from earlier work
# [6] = Besylate substudy—80 mg q.d., W1D1
# [7] = Besylate substudy—80 mg q.d., W3D4
# [8] = final model Run 32, power estimate of covariate effect
smiles,measurement,setting,value
COc1ccc2c(c1)C(c1ccc(Cl)cc1)=N[C@@H](CC(N)=O)c1nnc(C)n1-2 [GSK3529246],donors with concentration‐dependent increase in CYP3A4 mRNA,[1],one donor
same,AUC0–24 Mean,[2]; [6],3110.0 ng/mL
same,Cmax Mean,[2]; [6],316.0 ng/mL
same,Cmin Mean,[2]; [6],34.7 ng/mL
same,AUC0–24 Mean,[2]; [7],5890.0 ng/mL
same,Cmax Mean,[2]; [7],469.0 ng/mL
same,Cmin Mean,[2]; [7],89.6 ng/mL
same,AUC0–24 Mean,"[2]; Part 1—40 mg b.i.d., W1D1",1860.0 ng/mL
same,Cmax Mean,"[2]; Part 1—40 mg b.i.d., W1D1",222.0 ng/mL
same,Cmin Mean,"[2]; Part 1—40 mg b.i.d., W1D1",94.5 ng/mL
same,AUC0–24 Mean,"[2]; Part 1—40 mg b.i.d., W3D4",5810.0 ng/mL
same,Cmax Mean,"[2]; Part 1—40 mg b.i.d., W3D4",365.0 ng/mL
same,Cmin Mean,"[2]; Part 1—40 mg b.i.d., W3D4",128.0 ng/mL
same,AUC0–24 Mean,"[2]; Part 1—60 mg q.d., W1D1",2640.0 ng/mL
same,Cmax Mean,"[2]; Part 1—60 mg q.d., W1D1",296.0 ng/mL
same,Cmin Mean,"[2]; Part 1—60 mg q.d., W1D1",21.3 ng/mL
same,AUC0–24 Mean,"[2]; Part 1—60 mg q.d., W3D4",4240.0 ng/mL
same,Cmax Mean,"[2]; Part 1—60 mg q.d., W3D4",379.0 ng/mL
same,Cmin Mean,"[2]; Part 1—60 mg q.d., W3D4",57.7 ng/mL
same,AUC0–24 Mean,"[2]; Part 1—80 mg q.d., W1D1",3230.0 ng/mL
same,Cmax Mean,"[2]; Part 1—80 mg q.d., W1D1",355.0 ng/mL
same,Cmin Mean,"[2]; Part 1—80 mg q.d., W1D1",65.8 ng/mL
same,AUC0–24 Mean,"[2]; Part 1—80 mg q.d., W3D4",4730.0 ng/mL
same,Cmax Mean,"[2]; Part 1—80 mg q.d., W3D4",448.0 ng/mL
same,Cmin Mean,"[2]; Part 1—80 mg q.d., W3D4",66.1 ng/mL
same,AUC0–24 Mean,"[2]; Part 1—100 mg q.d., W1D1",3910.0 ng/mL
same,Cmax Mean,"[2]; Part 1—100 mg q.d., W1D1",383.0 ng/mL
same,Cmin Mean,"[2]; Part 1—100 mg q.d., W1D1",46.8 ng/mL
same,AUC0–24 Mean,"[2]; Part 1—100 mg q.d., W3D4",6970.0 ng/mL
same,Cmax Mean,"[2]; Part 1—100 mg q.d., W3D4",567.0 ng/mL
same,Cmin Mean,"[2]; Part 1—100 mg q.d., W3D4",120.0 ng/mL
same,AUC0–24 Mean,"[2]; Part 2—75 mg q.d., W1D1",2720.0 ng/mL
same,Cmax Mean,"[2]; Part 2—75 mg q.d., W1D1",325.0 ng/mL
same,Cmin Mean,"[2]; Part 2—75 mg q.d., W1D1",57.5 ng/mL
same,AUC0–24 Mean,"[2]; Part 2—75 mg q.d., W3D4",5010.0 ng/mL
same,Cmax Mean,"[2]; Part 2—75 mg q.d., W3D4",431.0 ng/mL
same,Cmin Mean,"[2]; Part 2—75 mg q.d., W3D4",82.7 ng/mL
same,free fraction in plasma,[3],approximately 0.2
same,GSK3529246 central volume of distribution mV1/F,[4]; final model Run 32,62.1 L
same,GSK3529246 clearance mCL/F,[4]; final model Run 32,12.8 L/h
same,GSK3529246 transit rate mka,[4]; final model Run 32,11.5 h⁻¹
same,AST effect on mCL/F,[4]; [8],−0.194
same,Weight effect on V1/F and mV1/F,[4]; [8],0.717
same,IIV on GSK3529246 transit rate ωmka2,"[4]; final model Run 32, variance",0.488
CCNC(=O)C[C@@H]1N=C(c2ccc(Cl)cc2)c2cc(OC)ccc2-n2c(C)nnc21 [Molibresib],proliferation of human cancer cell lines,[5],inhibits the proliferation
